From patent US20250099548A1, “PHARMACEUTICAL COMPOSITION FOR PREVENTING OR TREATING DEGENERATIVE BRAIN DISEASES, CONTAINING GLUCAGON-LIKE PEPTIDE-1 AND INTERLEUKIN-1 RECEPTOR ANTAGONIST” (GI INNOVATION, INC., priority 2022, published 2025)

Assays:
[1] = molecular target: T1, IL-1Ra (interleukin-1 receptor alpha) (Homo sapiens, UniProt P14778); assay: Binding ability of GI210B1 measured with Octet RED 384 (AR2G biosensor); details: IL-1Ra 1 μg/ml coated on biosensor; GI210B1 15.6 nM to 1,000 nM
T1 construct: purchased R&D systems
T1 sequence (P14778 18-569): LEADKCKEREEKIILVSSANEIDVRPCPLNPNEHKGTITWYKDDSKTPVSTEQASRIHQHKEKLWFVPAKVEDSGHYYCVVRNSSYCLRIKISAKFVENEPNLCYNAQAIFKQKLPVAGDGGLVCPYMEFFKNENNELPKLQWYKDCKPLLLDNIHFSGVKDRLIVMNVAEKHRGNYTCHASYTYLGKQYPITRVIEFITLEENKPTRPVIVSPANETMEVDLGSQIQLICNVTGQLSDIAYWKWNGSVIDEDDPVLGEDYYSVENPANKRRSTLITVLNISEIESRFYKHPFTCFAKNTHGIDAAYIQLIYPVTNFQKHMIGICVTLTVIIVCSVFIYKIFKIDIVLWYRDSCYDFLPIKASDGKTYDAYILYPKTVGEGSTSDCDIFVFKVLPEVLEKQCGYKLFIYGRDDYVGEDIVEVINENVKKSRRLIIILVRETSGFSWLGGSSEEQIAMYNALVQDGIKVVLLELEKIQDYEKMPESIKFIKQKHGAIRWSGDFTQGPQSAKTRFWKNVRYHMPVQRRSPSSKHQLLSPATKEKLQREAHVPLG
Experimental: The binding ability of GI210B1, which was obtained through the method of Preparation Example 1 above, to IL-1Ra ([…]) was measured. At that time, the binding ability to IL-1Ra was confirmed using Octet RED 384 (ForteBio). The AR2G (amine reactive 2nd generation) biosensor was used by immersion in 1× kinetic buffer for 10 minutes. IL-1Ra (R&D systems) was prepared at a concentration of 1 μg/ml and coated on the biosensor, and the binding ability was confirmed at each concentration by serially diluting GI210B1 from 15.6 nM to 1,000 nM.

Tg-APP/PS1 mice [2] = assay: Novel object recognition test; format: in vivo, mouse; details: Example 1, 1.2 mg/kg intraperitoneal, 4 times for 2 weeks from 6.5 months of age
Experimental: (§1) The test substance was prepared by diluting GI210B1 obtained in Preparation Example 1 in saline, and it was intraperitoneally administered to 6.5-month-old Tg-APP/PS1 mice at a concentration of 1.2 mg/kg a total of 4 times for 2 weeks (FIG. 10).
(§2) In the Tg-APP/PS1 mice intraperitoneally administered with GI210B1 at 6.5 months of age in Example 1.1 above, behavioral characteristics of cognitive function were evaluated at 7.5 to 8.0 months of age. In order to evaluate the behavioral characteristics of cognitive function, a novel object recognition test (NOR test), a passive avoidance test, and a water maze test were performed. At that time, the three experiments for behavioral evaluation were performed according to a method known in the art.
All behavior evaluations were recorded with a computerized video-tracking system (SMART; Panlab S. I., Barcelona, Spain) and a webcam recording system (HD Webcam C210, Logitech, Newark, CA, USA). At that time, the background sound in the test room was set to 65 dB of white noise, and all behavioral tests were performed during the photoperiod (9 a.m. to 3 p.m.).
Specifically, the mice prepared in Example 1.1 above were repeatedly exposed to two objects of the same shape twice at intervals of 10 minutes in an open field (familiarization). […] In addition, two hours after the habituation of the mice was completed, the mice were exposed to a novel object and an old object, and then the time taken for the mouse to recognize each object was measured [2-hour-NOR (novel object recognition) experiment]. Thereafter, the mice returned to their home cage, and then the location of one of the just-exposed objects was moved, and then object distinguishment and recognition time were measured [2-hour-NLR (novel position recognition) experiment]. Thereafter, 24 hours after the habituation of the mice was completed, the mice were exposed to another object and an old object, and then the time taken for the mouse to approach each object was measured (24-hour-NOR experiment). […]

Tg-APP/PS1 mice [3] = assay: Water maze test; format: in vivo, mouse; details: Example 1
Experimental: as §1, §2
The water maze test is a cognitive behavior evaluation experiment conducted to measure spatial perception learning ability and memory dependent on the hippocampus area of the brain. […]
In addition, a hidden platform test was conducted on the 6th day. The hidden platform of the water maze was removed, and then the mouse was placed in the water maze and the location the mouse stayed for 60 seconds was recorded. At that time, the time and location that the mouse stayed in the four quadrants of the water maze for 60 seconds in the absence of a hidden platform were recorded. […]

Tg-APP/PS1 mice [4] = assay: Ki-67 staining of hippocampal DG region; format: in vivo, mouse; details: Example 1; GI210B1 1.2 mg/kg intraperitoneal, 4 times for 2 weeks
Text: Ki-67 is a protein expressed in the nucleus during cell division.
In order to confirm the effect of GI210B1 on the decreased neurogenesis in the DG region of the hippocampus of Tg mice, the Tg-APP/PS1 mice administered with GI210B1 (Tg+GI210B1), the wild type mice (WT) as a normal group, and the Tg-APP/PS1 mice (Tg) as a control group were sacrificed, and then the brain was extracted, and the DG region of the hippocampus was fluorescently stained with Ki-67.

Ka(Association rate, 1/Ms) [1]: 22000 M⁻¹ s⁻¹
Kd(dissociation rate, 1/s) [1]: 0.0093 s⁻¹
Substance: GI210B1: fusion protein dimer comprising GLP-1 (SEQ ID NO: 2), IgG4 Fc domain and IL-1Ra; SEQ ID NO: 10
recognition of a novel object, 24-hour-NOR experiment (Tg-APP/PS1 mice [2]): recognized a novel object for a longer time at a similar level to the normal group (WT)
time taken for the mouse to recognize an object whose location was changed, 2-hour-NLR experiment (Tg-APP/PS1 mice [2]): increased similar to the normal group
time taken for the mouse to recognize a novel object, 2-hour-NOR experiment (Tg-APP/PS1 mice [2]; tested at 7.5 to 8.0 months): increased similar to the normal group (WT)
time in target quadrant, hidden platform test (Tg-APP/PS1 mice [3]; 6th day, platform removed, 60 seconds): recognized for a longer time compared to the control group (Tg+Veh)
time taken for the mouse to learn and find the location of the hidden platform (spatial perception training) (Tg-APP/PS1 mice [3]; training twice a day for 5 days, 1.2 mg/kg intraperitoneal, 4 times for 2 weeks): somewhat slower than that of the normal group, but faster than that of the control group (Tg+Veh)
number of Ki-67 positive cells in the DG region of the hippocampus (Tg-APP/PS1 mice [4]): increased compared to the Tg-APP/PS1 mice (Tg), which was a level similar to that of the normal group (WT)
